Reference: PubChem BioAssay (NCI)
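Tested at 5 concentrations; 48 h exposure; 96-well plates; endpoints linearly interpolated, else capped at highest concentration. The concentration for full growth arrest is given as TGI.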

Legend:
Test in all cases: growth of human tumour cells (NCI), 48 h
DMS 273 small cell lung = tested on: DMS 273 small cell lung
OVCAR-8 ovarian = tested on: OVCAR-8 ovarian
LOX IMVI melanoma = tested on: LOX IMVI melanoma
SK-OV-3 ovarian = tested on: SK-OV-3 ovarian
M19-MEL melanoma = tested on: M19-MEL melanoma
XF 498 CNS = tested on: XF 498 CNS
K-562 leukemia = tested on: K-562 leukemia
SK-MEL-5 melanoma = tested on: SK-MEL-5 melanoma
KM12 colon = tested on: KM12 colon
HL-60(TB) leukemia = tested on: HL-60(TB) leukemia
SK-MEL-2 melanoma = tested on: SK-MEL-2 melanoma
OVCAR-5 ovarian = tested on: OVCAR-5 ovarian
HT29 colon = tested on: HT29 colon
DLD-1 colon = tested on: DLD-1 colon
IGROV1 ovarian = tested on: IGROV1 ovarian
SNB-78 CNS = tested on: SNB-78 CNS
HOP-62 NSCLC = tested on: HOP-62 NSCLC
RPMI-8226 leukemia = tested on: RPMI-8226 leukemia
KM20L2 colon = tested on: KM20L2 colon
COLO 205 colon = tested on: COLO 205 colon
DMS 114 small cell lung = tested on: DMS 114 small cell lung
TK-10 renal = tested on: TK-10 renal
OVCAR-3 ovarian = tested on: OVCAR-3 ovarian
SNB-75 CNS = tested on: SNB-75 CNS
UACC-257 melanoma = tested on: UACC-257 melanoma
HCT-116 colon = tested on: HCT-116 colon
NCI-H23 lung = tested on: NCI-H23 lung
HOP-92 NSCLC = tested on: HOP-92 NSCLC
SF-268 CNS = tested on: SF-268 CNS
HOP-18 NSCLC = tested on: HOP-18 NSCLC
A498 renal = tested on: A498 renal
SF-295 CNS = tested on: SF-295 CNS
RXF-631 renal = tested on: RXF-631 renal
RXF 393 renal = tested on: RXF 393 renal
HCC-2998 colon = tested on: HCC-2998 colon
SK-MEL-28 melanoma = tested on: SK-MEL-28 melanoma
786-0 renal = tested on: 786-0 renal
A549 NSCLC = tested on: A549 NSCLC
U251 CNS = tested on: U251 CNS
UO-31 renal = tested on: UO-31 renal
LXFL 529 NSCLC = tested on: LXFL 529 NSCLC
SF-539 CNS = tested on: SF-539 CNS
MALME-3M melanoma = tested on: MALME-3M melanoma
NCI-H460 lung = tested on: NCI-H460 lung
ACHN renal = tested on: ACHN renal
CCRF-CEM leukemia = tested on: CCRF-CEM leukemia
SW-620 colon = tested on: SW-620 colon
EKVX NSCLC = tested on: EKVX NSCLC
MOLT-4 leukemia = tested on: MOLT-4 leukemia
NCI-H522 lung = tested on: NCI-H522 lung
SN12C renal = tested on: SN12C renal
M14 melanoma = tested on: M14 melanoma
UACC-62 melanoma = tested on: UACC-62 melanoma
SNB-19 CNS = tested on: SNB-19 CNS
NCI-H226 lung = tested on: NCI-H226 lung
HCT-15 colon = tested on: HCT-15 colon
SR leukemia = tested on: SR leukemia
OVCAR-4 ovarian = tested on: OVCAR-4 ovarian
CAKI-1 renal = tested on: CAKI-1 renal

Measured: TGI

COc1ccc2c(c1)C1C(CO2)C(c2ccccc2)=NN1c1ccccc1 (configuration not stated)
9.67 µM: SNB-75 CNS
not listed: SN12C renal | M14 melanoma | UACC-62 melanoma | SNB-19 CNS | NCI-H226 lung | HCT-15 colon | SR leukemia | OVCAR-4 ovarian | CAKI-1 renal
> 100 µM: all other assays above

CCOC(=O)c1csc(CCCCCCc2nc(C(=O)OCC)cs2)n1
> 83.8 µM: SK-MEL-28 melanoma
> 66.5 µM: A549 NSCLC
57.5 µM: M19-MEL melanoma
> 88 µM: SF-539 CNS
> 57.7 µM: NCI-H460 lung
97.5 µM: NCI-H226 lung
> 54.5 µM: LOX IMVI melanoma
> 69.2 µM: RPMI-8226 leukemia
86.3 µM: XF 498 CNS
64 µM: RXF 393 renal
70.4 µM: SNB-75 CNS
> 89.1 µM: HOP-62 NSCLC
> 52.3 µM: HCT-116 colon
96.9 µM: UACC-257 melanoma
> 87.2 µM: OVCAR-8 ovarian
> 59.6 µM: U251 CNS
> 56.7 µM: 786-0 renal
> 62 µM: K-562 leukemia
> 65.4 µM: HL-60(TB) leukemia | SW-620 colon
98.1 µM: COLO 205 colon
99.7 µM: NCI-H23 lung
> 63.9 µM: CCRF-CEM leukemia
not listed: DMS 114 small cell lung
> 100 µM: all other assays above

Sc1ccccc1S
> 10 µM: OVCAR-8 ovarian | TK-10 renal | UO-31 renal | EKVX NSCLC
not listed: SK-MEL-5 melanoma | KM12 colon | SK-MEL-2 melanoma | OVCAR-5 ovarian | RPMI-8226 leukemia | SNB-75 CNS | UACC-257 melanoma | HCT-116 colon | A498 renal | SF-539 CNS | CCRF-CEM leukemia | MOLT-4 leukemia | NCI-H522 lung | NCI-H226 lung | SR leukemia
> 100 µM: all other assays above
